Experiments:
Experiment in all cases: X-ray crystal structure, […] A, soaking
Type in all cases: binding
CtFDO (CtFDOdegl) [1] = target: T1, CtFDO (CtFDOdegl) (Thermochaetoides thermophila, UniProt G0SAW6); conditions: crystals at pH 5.5; thiophene in subsite S2, aliphatic moiety in catalytic site; occupancy 0.9; formic acid in S1
T1 construct: gene CTHT_0048040; secreted from Aspergillus oryzae, no tag mentioned; signal peptide (21), next 20 N-terminal and 8 C-terminal residues absent; 595 residues by LC-MS/MS; endoglycosidase F1 deglycosylated; about 68 kDa; monomer
T1 sequence (G0SAW6 entry or part of it): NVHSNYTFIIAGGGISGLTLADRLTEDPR
T1 sequence (G0SAW6 entry or part of it): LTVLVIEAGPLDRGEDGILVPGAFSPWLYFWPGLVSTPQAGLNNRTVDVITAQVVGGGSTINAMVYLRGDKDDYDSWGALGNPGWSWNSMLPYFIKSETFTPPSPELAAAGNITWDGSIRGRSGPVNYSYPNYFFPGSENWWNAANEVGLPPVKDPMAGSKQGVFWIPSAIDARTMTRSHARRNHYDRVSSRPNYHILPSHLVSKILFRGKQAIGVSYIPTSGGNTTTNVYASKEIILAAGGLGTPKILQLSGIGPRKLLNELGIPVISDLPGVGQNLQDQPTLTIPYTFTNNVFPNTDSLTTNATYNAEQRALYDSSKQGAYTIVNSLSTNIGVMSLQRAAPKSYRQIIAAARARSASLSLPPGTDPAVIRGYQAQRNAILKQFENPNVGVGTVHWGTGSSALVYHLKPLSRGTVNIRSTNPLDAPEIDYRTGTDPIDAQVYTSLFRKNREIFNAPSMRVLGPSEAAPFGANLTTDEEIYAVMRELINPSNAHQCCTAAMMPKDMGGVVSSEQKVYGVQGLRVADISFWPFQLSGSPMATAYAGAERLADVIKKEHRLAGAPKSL

CtFDO (CtFDOdegl) [2] = target: T1, CtFDO (CtFDOdegl); conditions: 20 mM MgCl2; two molecules per chain, subsites S1 and S3; occupancy 0.7-0.8; formic acid in catalytic site
CtFDO (CtFDOdegl) [3] = target: T1, CtFDO (CtFDOdegl); conditions: crystals at pH 5.5; catalytic site; occupancy 1.0; formic acid in S1

**Q.** For `C[C@H](NC(=O)CCC(=O)c1cccs1)c1cccnc1` [PESB, 4-oxo-N-[(1S)-1-(pyridin-3-yl)ethyl]-4-(thiophen-2-yl)butanamide], which “X-ray crystal structure, 1.60 A, soaking” value (CtFDO (CtFDOdegl) [1]) is on record?
**A.** The value was “each protein chain binds one PESB molecule”.

**Q.** With `O=[N+]([O-])c1ccc(O)c(O)c1` [4NC, 4-nitrocatechol] as the compound, how does the “X-ray crystal structure, 1.26 A, soaking” value (CtFDO (CtFDOdegl) [2]) read?
**A.** Its value is “both CtFDOdegl chains bind two molecules of 4NC”.

**Q.** `COC(=O)c1ccc(CN)cc1` [MAMB, methyl-4-(aminomethyl)benzoate] was tested. Which “X-ray crystal structure, 2.22 A, soaking” value (CtFDO (CtFDOdegl) [3]) did it give?
**A.** Its value is “CtFDOdegl binds one MAMB molecule in the CS”.

— paper PMC8171062, “Crystallographic fragment screening-based study of a novel FAD-dependent oxidoreductase from Chaetomium thermophilum” (Acta Crystallographica. Section D, Structural Biology, 2021)
